Laboratory results as given in patent US12344587B2, “Synthetic retinoids for use in RAR activation” (UNIVERSITY OF DURHAM, priority 2019, dated 2025).
≈ marks a conversion by molar mass, not a printed value.

Experiments:
[1] = test system: retinoic acid response element (RARE); assay: X-Gal RA based reporter assay (genomic activity); assay type: cell-based; details: for Genomic Activity (X-Gal RA Based Reporter Assay) Efficacy (Emax) / EC50: Sil-15 reporter cells, overnight incubation; for EC50: read-out: Genomic Activity (X-Gal RA Based Reporter Assay) Potency (EC50); for Genomic activity and potency compared to retinoic acid (ATRA): X-Gal assay, versus ATRA
Protocol: The genomic activity of synthetic retinoids was evaluated by determining their efficiency of inducing transcription using the X-Gal Assay. The X-Gal Assay utilizes Sil-15 reporter cells in which the transcription of the LacZ gene is under control of a promoter linked to a retinoic acid response element (RARE). After treatment of the reporter cells with retinoids, the ability of the compounds to induce transcription can be attained by monitoring and quantifying the activity of β-galactosidase produced by the reporter cells.
Sil-15 cells were plated at 100,000 cells per well in 96-well plates coated in 0.1% gelatin. The following day, serial dilutions of retinoid ligands, prepared in Dulbecco's Modified Eagle's Medium (DMEM) containing 10% foetal calf serum (FCS) were added at concentrations from 10^−6 M to 10^−14 M and the plates were incubated overnight. All concentrations for the ATRA standard curve and the other retinoid ligands were tested in triplicate.
The next day, the assay plates were washed twice with phosphate buffered saline (PBS), fixed with 100 μl per well of 1% glutaraldehyde and 1 mM MgCl2 in PBS for 15 minutes and washed twice with PBS. β-galactosidase activity was detected by the addition of 100 μl of freshly-prepared 0.2% X-Gal in 1 mM MgCl2, 3.3 mM potassium ferricyanide and 3.3 mM potassium ferrocyanide in PBS per well. Plates were incubated for 6 hours at 37° C. in 5% CO2 and colour change was detected by reading the plates at 650 nm on an Emax Precision Microplate Reader (Molecular Devices).

[2] = test system: ERK1/2; assay: ERK1/2 phosphorylation assay, AlphaLISA SureFire Ultra (non-genomic activity); assay type: cell-based; parameters: Non-genomic activity (ERK½ Phosphorylation Assay) Efficacy (Emax): unit not given here; details: SH-SY5Y cells; for EC50: Homo sapiens, 0.5 h, read-out: Non-genomic activity (ERK½ Phosphorylation Assay) Potency (EC50); for EC50 / Non-genomic activity (ERK½ Phosphorylation Assay) Efficacy (Emax): serum-free, 30 minutes stimulation; for Erk 1/2 phosphorylation potency/efficacy compared to retinoic acid: versus retinoic acid
Protocol: The non-genomic activity of synthetic retinoids was evaluated by measuring their ability to induce phosphorylation of ERK1/2 using the AlphaLISA® SureFire® Ultra ERK1/2 kit.
In this assay, SH-SY5Y cells (100,000 cells/well) were plated in 96-well plates and serum-starved in DMEM for 24 hours. Retinoids were tested at concentrations from 10−5 M to 10−11 M and at a final concentration of 0.1% DMSO in the medium. The assay was carried out on the SH-SY5Y cells in serum-free DMEM, cells were stimulated by retinoid for 30 minutes at 37° C.
At the end of the assay, the medium was removed, and cells were lysed in 50 μl of freshly prepared 1× lysis buffer (supplied in the kit). The 96-well plate was agitated on an orbital shaker (SO1, Stuart Scientific) at approximately 350 rpm for 10 minutes at room temperature.
In the meantime, the activation buffer was diluted 25-fold in the reaction buffers. Under green light in a dark room, the acceptor beads were diluted 50-fold in the freshly prepared reaction mix while the donor beads were diluted 50-fold in dilution buffer to obtain two final reaction mixtures.
10 μl of cell lysate was then transferred per well into 384-well white Proxiplates plates (PerkinElmer) and 5 μl of each prepared acceptor and donor reaction mixture was added under green light in a dark room. Plates were wrapped with aluminium foil and incubated at room temperature for at least 3 hours. Readings were taken using an Envision system (PerkinElmer Life Sciences) using the AlphaScreen® settings.

[3] = test system: SH-SY5Y cells; assay: Induction of neurite outgrowth; assay type: cell-based; details: 10 nM, 5 days; for fold induction at 0.01 µM: Homo sapiens, 120 h, read-out: Neurite Outgrowth Fold increase
Protocol: SY—SY5Y cells were plated at 10,000 cells/well in 12-well plates containing acid-treated/poly-L-lysine-coated coverslips. After 24 hours, each retinoid was added to the medium at a concentration of 10 nM and the plates were incubated for 5 days. After retinoid treatment, SH-SY5Y cells on coverslips were washed twice in PBS, fixed in 4% paraformaldehyde (PFA) for 20 minutes at room temperature, and washed twice with PBS.
For immunocytochemical staining of neurites, cells on coverslips were washed three times in PBS, and incubated in blocking solution (10% donkey serum and 0.1% triton X-100 in PBS) for 1 hour at room temperature. Cells were then labelled by incubation overnight at 4° C. with β-III tubulin primary antibody (Sigma-Aldrich) diluted 1:1000 in blocking buffer. Following incubation overnight, cells were washed three times with PBS containing 0.1% Triton X-100 solution (PBST) before incubation with anti-mouse monoclonal secondary antibody (1:300 in PBST; Jackson Immunoresearch) for 2 hours at room temperature. Finally, after three washes in PBST and a final wash in PBS, the coverslips were mounted on slides and stored at 4° C.
ImageJ software with the NeuronJ plugin was used to quantify neurite outgrowth on stained cells. For each experiment, 10 different randomly selected images were taken from each cover slip using a Nikon Eclipse E400 fluorescence microscope. Each image was converted into an 8-bit image (necessary for the NeuronJ plugin) and optimised with the brightness and contrast tool in GIMP (GNU Image Manipulation Program). For each image, individual traces were drawn for each clearly-identifiable neurite using the tracing tool in the NeuronJ plugin. Neurite length was measured in pixels and transformed into the corresponding length in μm depending on the magnification used. The average neurite length for each image was calculated by dividing total neurite length by the total number of neurites per image. Ten images per cover slip were measured and the mean calculated for the coverslip overall. Coverslips were in triplicate for each retinoid and concentration.

[4] = Turbidimetric aqueous solubility; assay type: physicochemical; details: aqueous buffer, kinetic from dmso stock, 0.01 M phosphate buffered saline pH 7.4, 1% DMSO, 37° C.
Protocol: Test compound (10 mM in DMSO) is serially diluted to give solutions of 0.1, 0.3, 1 and 3 mM in DMSO. Each test compound concentration is then further diluted 1 in 100 in buffer (0.01 M phosphate buffered saline pH 7.4) so that the final DMSO concentration was 1% and the final test compound concentrations were 1, 3, 10, 30 and 100 μM. The experiment was performed at 37° C. and each concentration sample was incubated in 7 replicate wells. The plates were incubated for 2 hr at 37° C. before the absorbance was measured at 620 nm. The solubility of the sample was estimated from the concentration of test compound that produced an increase in absorbance above vehicle control (i.e., 1% DMSO in buffer).

Row | EC50 [1] [nM] | EC50 [2] [nM] | solubility at 2 h [4] [µM] | SMILES | Genomic Activity (X-Gal RA Based Reporter Assay) Efficacy (Emax) [1] | Non-genomic activity (ERK½ Phosphorylation Assay) Efficacy (Emax) [2] | fold induction at 0.01 µM [3] | Genomic activity and potency compared to retinoic acid (ATRA) [1] | Erk 1/2 phosphorylation potency/efficacy compared to retinoic acid [2] | Average neurite length compared to cells treated with ATRA [3]
1 | 1.38 | 15.7 | – | Cc1cc2c(cc1C#Cc1ccc(C(=O)O)cc1F)C(C)(C)CCC2(C)C [DC559] | 139.8 | 40.68 | 1.4 | – | – | –
2 | 0.015 | 159 | – | CC1(C)CCC(C)(C)c2cc(C#Cc3cc(F)c(C(=O)O)c(F)c3)ccc21 [DC540] | 185.3 | 79.73 | 1.7 | increased genomic activity and potency | higher potency and efficacy | –
3 | 603 | 90.8 | – | COc1cc2c(cc1C#Cc1ncc(C(=O)O)cn1)C(C)(C)CCC2(C)C [DC706] | 265.9 | 36.87 | 1.3 | – | – | –
4 | 3.89 | 30.4 | – | CC1(C)CCC(C)(C)c2cc(C#Cc3cnc(C(=O)O)cn3)ccc21 [DC529] | 174 | 28.85 | 1.3 | – | – | –
5 | 0.146 | 3.5 | – | COc1cc2c(cc1C#Cc1cc(F)c(C(=O)O)c(F)c1)C(C)(C)CCC2(C)C [DC657] | 154.9 | 72.45 | 1.4 | – | – | –
6 | 0.826 | 4.32 | – | Cc1cc2c(cc1C#Cc1ncc(C(=O)O)cn1)C(C)(C)CCC2(C)C [DC707] | 192.2 | 44.87 | 1.2 | – | – | –
7 | 1.04 | 33.1 | – | CC1=C(/C=C/C(C)=C/C=C/C(C)=C/C(=O)O)C(C)(C)CCC1 [ATRA, All-trans-retinoic acid, reference compound] | 170.1 | 48.55 | 1.4 | – | – | –
8 | 3.16 | 144 | – | COc1cc2c(cc1C#Cc1ccc(C(=O)O)cn1)C(C)(C)CCC2(C)C [DC646] | 176.3 | 77.63 | 1.7 | – | – | –
9 | 0.21 | 2.49 | – | CC1(C)CCC(C)(C)c2cc(C#Cc3ccc(C(=O)O)c(F)c3)ccc21 [DC525] | 190 | 42.44 | 1.9 | increased genomic activity and potency | higher potency | significantly larger average neurite length
10 | 0.427 | 502 | – | Cc1cc2c(cc1C#Cc1ccc(C(=O)O)cn1)C(C)(C)CCC2(C)C [DC656] | 177.2 | 56.77 | 1.6 | – | – | –
11 | 0.382 | 6.35 | – | CC1(C)CCC(C)(C)c2nc(C#Cc3ccc(C(=O)O)cc3F)cnc21 [DC712] | 179.7 | 94 | 1.2 | – | – | –
12 | 0.134 | 4.85 | – | Cc1cc2c(cc1C#Cc1ccc(C(=O)O)c(F)c1)C(C)(C)CCC2(C)C [DC667] | 169.8 | 44.3 | 1.4 | – | – | –
13 | 13.6 | 18.1 | – | CC1(C)CCC(C)(C)c2cc(C#Cc3ccc(C(=O)O)cc3Cl)ccc21 [DC567] | 97.21 | 44.46 | 1.6 | – | – | –
14 | 0.00347 | 30.6 | – | CC1(C)CCC(C)(C)c2cc(C#Cc3ccc(C(=O)O)cn3)ccc21 [DC527] | 209.8 | 92.51 | 1.9 | increased genomic activity and potency | higher potency and efficacy | significantly larger average neurite length
15 | 0.128 | 31.8 | 6.5 (≈ 2.16 µg/mL) | CC1(C)CCC(C)(C)c2cc(C#Cc3ccc(C(=O)O)cc3)ccc21 [EC23, reference compound] | 169.18 | 91.93 | 2.2 | – | – | –
16 | 5.31 | 18.1 | – | COc1cc2c(cc1C#Cc1ccc(C(=O)O)cc1F)C(C)(C)CCC2(C)C [DC564] | 177.1 | 44.46 | 1.3 | – | – | –
